Patent US20240245634A1, “PCNA INHIBITORS AND EGFR INHIBITORS FOR CANCER TREATMENT” (City of Hope, priority 2021, published 2024)
“Also recorded” adds a separate entry of the source.

Legend:
PCNA = target: T1, PCNA (Homo sapiens, UniProt P12004); experiment: Immunofluorescence imaging of PCNA in MDA-MB-468 cells; type: cell-based; conditions: MDA-MB-468, serum starved, 30 minutes drug, then 15 minutes EGF
T1 construct: endogenous in cells; host or cells: MDA-MB-468
Procedure: (§1) Serum starved cells were treated for 30 minutes with DMSO, AOH1996, Osi, or AOH1996 and Osi followed by 15 minutes of EGF stimulation.

NCI60 cell line panel = experiment: Growth inhibition on the NCI60 cell line panel (NCI Developmental Therapeutics Program); type: cell-based
From the text: (§2) Studies that explored acquisition of resistance to Osi have identified many genomic alterations that contribute to resistance. These alterations are present in some of the cell lines in the NCI60 cell line panel. The growth inhibitory effects of AOH1996 on the NCI60 panel has been measured through services offered by the NCI's Development Therapeutics Program.

[1] = tested on: cell lines (14837, 14838) engineered to express oncogenic KRAS; experiment: Dose response assay on cell lines with doxycycline-inducible mutant KRAS; type: cell-based; conditions: with doxycycline (KRAS expressed) versus without
Procedure: Some of those alterations are present in the NCI60 cell line and represented in the chart. Each circle represent cell lines with the resistance conferring genomic alteration listed on the x-axis. […] FIG. 5F: two cell lines (14837, 14838) engineered to express oncogenic KRAS in the presence of doxycycline (Dox) were treated with escalating doses of AOH1996 in a dose response assay.
as §2

EGFR = target: T2, EGFR (Homo sapiens, UniProt P00533); experiment: Immunofluorescence imaging of EGFR in MDA-MB-468 cells; type: cell-based; conditions: MDA-MB-468, serum starved, 30 minutes drug, then 15 minutes EGF
T2 construct: endogenous in cells; host or cells: MDA-MB-468
Procedure: as §1

tumors = experiment: In vivo tumor suppression and tolerability
CRC cell lines = experiment: IC50 on colorectal cancer cell lines of the NCI60 panel; type: cell-based; conditions: IC50 determined by the NCI Developmental Therapeutics Program
Procedure: FIGS. 7A-7B show EGFR targeted antibodies used in the treatment of colorectal cancer (CRC). […] CRC with KRAS and BRAF activating mutations are often difficult to treat but cell lines with mutant KRAS and BRAF are responsive to AOH1996. FIG. 7A: IC50 of CRC cell lines relative to the rest of the NCI60 cell lines. FIG. 7B: AOH1996 IC50 on CRC cell lines classified by presence and type of Ras-Raf-Mek-Erk pathway mutation. IC50s for the NCI60 cell lines was determined by the NCI Developmental Therapeutics Program. Mutation status of CRC cell lines was found in the Cellosaurus database.

T1 sequence (P12004 whole entry): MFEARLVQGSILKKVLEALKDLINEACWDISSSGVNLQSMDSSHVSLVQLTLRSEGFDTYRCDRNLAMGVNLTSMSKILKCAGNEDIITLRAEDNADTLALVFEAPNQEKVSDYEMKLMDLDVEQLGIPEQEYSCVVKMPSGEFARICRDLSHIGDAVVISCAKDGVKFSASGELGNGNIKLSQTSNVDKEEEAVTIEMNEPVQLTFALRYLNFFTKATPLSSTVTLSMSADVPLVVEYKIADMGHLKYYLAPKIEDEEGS
T2 sequence (P00533 25-1210): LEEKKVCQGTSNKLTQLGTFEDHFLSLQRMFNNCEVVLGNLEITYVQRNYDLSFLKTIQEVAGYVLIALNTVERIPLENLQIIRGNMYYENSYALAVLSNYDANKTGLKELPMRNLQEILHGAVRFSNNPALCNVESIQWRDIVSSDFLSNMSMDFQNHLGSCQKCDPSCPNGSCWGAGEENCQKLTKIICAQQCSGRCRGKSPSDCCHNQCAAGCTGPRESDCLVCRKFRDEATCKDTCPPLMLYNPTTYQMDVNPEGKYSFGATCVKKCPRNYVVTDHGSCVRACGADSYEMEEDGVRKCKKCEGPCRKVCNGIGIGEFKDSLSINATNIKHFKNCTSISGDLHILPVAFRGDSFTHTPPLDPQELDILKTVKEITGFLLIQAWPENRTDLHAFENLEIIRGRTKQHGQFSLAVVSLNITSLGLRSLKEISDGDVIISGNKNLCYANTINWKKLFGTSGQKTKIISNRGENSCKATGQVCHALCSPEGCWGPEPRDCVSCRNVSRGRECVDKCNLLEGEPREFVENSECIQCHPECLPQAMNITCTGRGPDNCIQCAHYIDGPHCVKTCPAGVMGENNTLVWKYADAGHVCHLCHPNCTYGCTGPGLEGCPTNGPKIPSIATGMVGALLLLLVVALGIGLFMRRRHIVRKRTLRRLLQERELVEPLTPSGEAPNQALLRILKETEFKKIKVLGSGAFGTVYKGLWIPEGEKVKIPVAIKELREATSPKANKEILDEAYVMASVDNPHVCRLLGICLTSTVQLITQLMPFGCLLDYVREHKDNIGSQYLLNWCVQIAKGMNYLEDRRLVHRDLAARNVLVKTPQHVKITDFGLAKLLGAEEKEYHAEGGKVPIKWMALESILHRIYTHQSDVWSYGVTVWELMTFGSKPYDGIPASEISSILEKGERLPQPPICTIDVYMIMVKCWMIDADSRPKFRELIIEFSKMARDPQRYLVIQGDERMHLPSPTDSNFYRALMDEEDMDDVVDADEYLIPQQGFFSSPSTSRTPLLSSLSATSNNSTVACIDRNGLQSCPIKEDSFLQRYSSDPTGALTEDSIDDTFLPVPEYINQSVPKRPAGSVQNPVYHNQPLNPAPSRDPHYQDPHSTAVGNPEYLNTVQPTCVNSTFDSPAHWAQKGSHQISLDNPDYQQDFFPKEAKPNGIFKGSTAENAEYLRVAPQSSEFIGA

Row | Compound | PCNA localization (PCNA) | effect of genomic alterations conferring resistance to osimertinib on sensitivity to AOH1996 (NCI60 cell line panel; NCI60 cell lines carrying the alterations) | sensitivity of BRAF and KRAS mutant cell lines to AOH1996 (NCI60 cell line panel; NCI60 cell lines with BRAF V600E and activating KRAS mutations) | sensitivity with mutant KRAS expressed versus expression suppressed [1] | EGFR localization and signal (EGFR) | dose with no discernable side effects (tumors) | route of administration (tumors) | effect on tumors in vivo (tumors; oral) | response of CRC cell lines with mutant KRAS and BRAF (CRC cell lines) | sensitivity of CRC cell lines relative to the rest of the NCI60 cell lines (CRC cell lines)
1 | COc1cccc(Oc2ccccc2NC(=O)CNC(=O)c2cccc3ccccc23)c1 [AOH1996] | lost punctate staining of PCNA in the nucleus; also recorded: Nuclear PCNA foci were absent | did not confer resistance | noticeable skew in distribution towards AOH1996 sensitivity; also recorded: greater sensitivity | sensitive to AOH1996 when mutant KRAS is expressed but not when expression was suppressed; also recorded: more sensitive | accumulated EGFR at the cell membrane; also recorded: EGFR was localized to the cell membrane | more than 6 times its effective dose | orally administrable | effectively kills and suppresses tumors | responsive | particularly sensitive
2 | C=CC(=O)Nc1cc(Nc2nccc(-c3cn(C)c4ccccc34)n2)c(OC)cc1N(C)CCN(C)C [osimertinib, reference compound] | less apparent |  |  |  |  |  |  |  |  | 
